# Results taken from article PMC4182326, “Synthesis and Characterization of Novel 2-Amino-Chromene-Nitriles that Target Bcl-2 in Acute Myeloid Leukemia Cell Lines” (PLoS ONE, 2014).
# How the values were obtained:
# Bcl-2 [1] = target: T1, Bcl-2 (Homo sapiens, UniProt P10415); test: Zymed Bcl-2 ELISA; % inhibition of Bcl-2 binding to its antibody at […]
# T1 construct: gene BCL2
# Bcl-2 [2] = target: T1, Bcl-2; test: Zymed Bcl-2 ELISA; inhibition of Bcl-2 binding to its antibody
# T1 sequence (P10415 whole entry): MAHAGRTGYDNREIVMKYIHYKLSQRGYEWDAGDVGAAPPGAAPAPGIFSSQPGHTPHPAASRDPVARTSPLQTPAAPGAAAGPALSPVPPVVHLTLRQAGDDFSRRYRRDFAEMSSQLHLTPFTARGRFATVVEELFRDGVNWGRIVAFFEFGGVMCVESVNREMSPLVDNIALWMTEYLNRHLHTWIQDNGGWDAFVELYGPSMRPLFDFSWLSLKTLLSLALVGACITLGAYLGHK
inhibition at 30 µM (Bcl-2 [1]),IC50 (Bcl-2 [2]),SMILES
37.8%,–,"N#CC1=C(N)Oc2cc3ccccc3cc2C1c1cccc([N+](=O)[O-])c1 (stereo not shown) [4a, 2-amino-4-(3-nitrophenyl)-4H-benzo[g]chromene-3-carbonitrile]"
53%,–,"N#CC1=C(N)Oc2cc3ccccc3cc2C1c1ccc(F)cc1 (stereo not shown) [4h, 2-amino-4-(4-fluorophenyl)-4H-benzo[g]chromene-3-carbonitrile]"
61.9%,–,"N#CC1=C(N)Oc2cc3ccccc3cc2C1c1ccccc1[N+](=O)[O-] (stereo not shown) [4f, 2-amino-4-(2-nitrophenyl)-4H-benzo[g]chromene-3-carbonitrile]"
–,17.8 µM,"N#CC1=C(N)Oc2cc3ccccc3cc2C1c1c(Cl)cccc1Cl (stereo not shown) [4g, 2-amino-4-(2,6-dichlorophenyl)-4H-benzo[g]chromene-3-carbonitrile]"
